“And” between values parts separate entries of the source, which are not always exact repeats. Equal values may be shown once. “Also recorded” adds a separate entry of the source. Read-outs that look alike come from different tables or passages of the source.
What was measured:
[1] = target: T1, acetylcholinesterase (from human erythrocytes) (Homo sapiens, UniProt P22303); experiment: biochemical; set-up: LogIC50 (best-fit value): unit not given here
T1 construct: acetylcholinesterase (from human erythrocytes, purchased from Sigma-Aldrich, Seoul, Korea); purchased Sigma-Aldrich, Seoul, Korea; host or cells: human erythrocytes (natural source)
T1 sequence (P22303 32-617 isoform P22303-2 limits assumed): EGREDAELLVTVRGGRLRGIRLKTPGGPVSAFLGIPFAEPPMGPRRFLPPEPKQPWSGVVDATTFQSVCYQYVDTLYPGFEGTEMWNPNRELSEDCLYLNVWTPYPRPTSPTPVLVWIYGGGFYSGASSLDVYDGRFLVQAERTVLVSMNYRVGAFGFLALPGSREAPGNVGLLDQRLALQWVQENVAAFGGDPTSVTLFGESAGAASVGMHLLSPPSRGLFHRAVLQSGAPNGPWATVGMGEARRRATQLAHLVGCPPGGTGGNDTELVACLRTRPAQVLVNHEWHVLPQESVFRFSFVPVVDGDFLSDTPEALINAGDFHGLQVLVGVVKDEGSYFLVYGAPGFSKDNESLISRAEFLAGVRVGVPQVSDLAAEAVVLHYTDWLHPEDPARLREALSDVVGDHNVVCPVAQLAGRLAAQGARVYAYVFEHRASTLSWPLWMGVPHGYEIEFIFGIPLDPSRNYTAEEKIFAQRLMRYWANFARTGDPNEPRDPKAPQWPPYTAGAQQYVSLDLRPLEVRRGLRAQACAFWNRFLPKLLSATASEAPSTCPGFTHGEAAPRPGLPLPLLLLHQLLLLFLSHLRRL
Procedure: The inhibitory activities of synthesized compounds were determined spectrophotometrically using acetylthiocholine iodide as substrate by following the method of ([Ellman et al., 1961]). Briefly, The assay solution consisted of 180 µL of 50 mM Tris-HCl buffer, pH 7.7, containing (0.1 M sodium chloride and 0.02 M magnesium chloride) and 20 µL of enzyme (AChE, EC 3.1.1.7), acetylcholinesterase (from human erythrocytes, purchased from Sigma-Aldrich, Seoul, Korea) solution (50 U per well); increasing concentrations of test compounds (10 µL) were added to the assay solution and pre incubated for 30 min at 4 °C. After that 5,5′ Dithiobis (2 nitrobenzoic acid) (0.3 mM, 20 µL) and acetylthiocholine iodide (1.8 mM, 20 µL) were added to the reaction mixture and incubated at 37 °C for 10 min, followed by the measurement of absorbance at 412 nm. For non-enzymatic reaction, the assays were carried out with a blank containing all components except acetylcholinesterase. The assay measurements were measured at 412 nm using a micro plate reader (OPTI Max Tunable; Molecular Devices, Sunnyvale, CA, USA) having a wave-length range from 340–850 nm; for 96 well plates. The reaction rates were compared and percent inhibition was calculated due to the presence of tested inhibitors. […] Each concentration was analyzed in three independent experiments run in triplicate. The IC50 values were calculated by nonlinear regression using GraphPad Prism 5.0.
The % of Inhibition of Acetylcholinesterase was calculated as following: Inhibition%=B−S∕B×100. Here, the B and S are the absorbance’s for the blank and samples.

[2] = target: T1, acetylcholinesterase (from human erythrocytes); experiment: Determination of AChE inhibition kinetics (Lineweaver-Burk and secondary plots); type: biochemical
Procedure: The reaction mixture consisted of 180 µL of 50 mM Tris-HCl buffer (pH 7.7); 10 µL of 5c at the different concentrations (0.00, 0.075 and 0.15 µM) and 20 µL enzyme AChE (50 U per well). We added 20 µL of DTNB 0.3 mM and 20 µL of ATCI substrate at the different concentrations (4, 2, 1, 0.5, 0.25 and 0.125 mM) and mixed, pre-incubated time was same as acetylcholinesterase assay. We measured the absorbance at 412 nm up to 5 min. Lineweaver-Burk plot of the inverse of velocities vs. the inverse of substrate concentration was used for assessment of the type of inhibition AChE kinetically. […] The results (change in absorbance per sec) were processed by using SoftMaxPro software.

For `COc1ccc(CCN(C(C)C)S(=O)(=O)c2ccc(C)cc2)cc1` [Compound 5c, N-(4-Methoxyphenethyl)-4-methyl-N-(2-propyl)benzensulfonamide], the IC50 ([1]; each of three independent experiments, Raw Data of IC50 sheet, read-out: IC50, single experiment (converted)) was 0.0424 µM and 0.108 µM, the IC50 ([1]; from human erythrocytes, mean ± SEM, read-out: Acetylcholinesterase IC50 ± SEM) was 0.0751 ± 0.0189 µM and the “LogIC50 (best-fit value)” value ([1]; log(inhibitor) vs. response fit, single run, IC50 Raw Data sheet) was -1.584. The IC50 ([1]; log(inhibitor) vs. response fit, single run, unit inferred, IC50 Raw Data sheet, read-out: IC50 (best-fit value) (converted)) was 0.075 µM, the IC50 ([1]; mean converted to uM, Raw Data of IC50 sheet, read-out: IC50) was 0.0751 µM and the IC50 ([1]; mean of three experiments, Raw Data of IC50 sheet, read-out: IC50 (Mean) (converted)) was 0.0751 µM. For the same compound, the type of inhibition ([2]; Lineweaver-Burk plots) was “competitively; also recorded: competitive”, the “Slope of Lineweaver-Burk line” value ([2]; compound 0.075 µM) was 1360.1 and the “Vmax (1/V)” value ([2]; compound 0.075 µM, substrate axis value 0.25) was 994.096. For the same compound, the “Vmax (1/V)” value ([2]; compound 0.075 µM, substrate axis value 0.5) was 1353.4, the “Vmax (1/V)” value ([2]; compound 0.075 µM, substrate axis value 1) was 2004.13 and the “Vmax (1/V)” value ([2]; compound 0.075 µM, substrate axis value 2) was 3323.6. For the same compound, the “Vmax (1/V)” value ([2]; compound 0.075 µM, substrate axis value 4) was 5882.71, the “Vmax (1/V)” value ([2]; compound 0.075 µM, substrate axis value 8) was 11587.8 and the “Slope of Lineweaver-Burk line” value ([2]; compound 0.15 µM) was 1563.63. The “Vmax (1/V)” value ([2]; compound 0.15 µM, substrate axis value 0.25) was 1136.29, the “Vmax (1/V)” value ([2]; compound 0.15 µM, substrate axis value 0.5) was 1514.8 and the “Vmax (1/V)” value ([2]; compound 0.15 µM, substrate axis value 1) was 2227.02. For the same compound, the “Vmax (1/V)” value ([2]; compound 0.15 µM, substrate axis value 2) was 3687.56, the “Vmax (1/V)” value ([2]; compound 0.15 µM, substrate axis value 4) was 6343.71 and the “Vmax (1/V)” value ([2]; compound 0.15 µM, substrate axis value 8) was 13371.1. The Ki ([2]; from Dixon / secondary plot of slope vs inhibitor concentration, read-out: inhibition constant Ki (EI dissociation constant)) was 2.5 µM.
